Assay results taken from patent US9676712B2, “Lactam compounds as EP4 receptor-selective agonists for use in the treatment of EP4-mediated diseases and conditions” (Cayman Chemical Company, Inc., priority 2013, dated 2017).

What was measured:
[1] = molecular target: T1, EP4 receptor (Rattus norvegicus (Rat), UniProt P43114); assay: STEP plate cell functional assay, cAMP level (ELISA), EP4; type: cell-based; conditions: 30 minutes, 500 μM IBMX
Excerpt: (§1) Functional Cellular Assays (STEP Plate Format)
Procedure of cAMP Assay for EP2/EP4 Agonist
(§2) 3. […] In addition each concentration had triplicates.
6. Aspirate the supernatant.

[2] = molecular target: T1, EP4 receptor; assay: STEP plate cell functional assay, SEAP activity, EP4; type: cell-based; conditions: SEAP reporter, 6-8 hours stimulation
Excerpt: as §1
(§3) Procedure of SEAP Activity Assay for EP2/EP4 Agonist
as §2
(§4) 4. […] Cover the plate with the lid.

[3] = molecular target: EP2 receptor (Rattus norvegicus (Rat), UniProt Q62928); assay: STEP plate cell functional assay, SEAP activity, EP2; type: cell-based; conditions: SEAP reporter, 6-8 hours stimulation
Sequence of EP2 receptor (Q62928 whole entry): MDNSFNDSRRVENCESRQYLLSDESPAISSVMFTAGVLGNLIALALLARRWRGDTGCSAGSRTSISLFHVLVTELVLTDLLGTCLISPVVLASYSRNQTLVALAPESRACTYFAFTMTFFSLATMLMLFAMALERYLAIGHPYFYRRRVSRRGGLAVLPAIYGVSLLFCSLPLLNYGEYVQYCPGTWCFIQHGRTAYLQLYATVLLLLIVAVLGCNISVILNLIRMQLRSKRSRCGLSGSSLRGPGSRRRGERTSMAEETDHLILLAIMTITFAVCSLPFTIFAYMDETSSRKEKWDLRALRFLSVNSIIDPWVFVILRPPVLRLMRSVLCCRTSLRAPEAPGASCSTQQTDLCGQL
Excerpt: as §1, §3, §2, §4

[4] = molecular target: Human Prostanoid EP4 Receptor (Homo sapiens (Human), UniProt P35408); assay: Radioligand binding assay, agonist site of the human prostanoid EP4 receptor in transfected HEK-293 cells ([3H]PGE2)
Sequence of Human Prostanoid EP4 Receptor (P35408 whole entry): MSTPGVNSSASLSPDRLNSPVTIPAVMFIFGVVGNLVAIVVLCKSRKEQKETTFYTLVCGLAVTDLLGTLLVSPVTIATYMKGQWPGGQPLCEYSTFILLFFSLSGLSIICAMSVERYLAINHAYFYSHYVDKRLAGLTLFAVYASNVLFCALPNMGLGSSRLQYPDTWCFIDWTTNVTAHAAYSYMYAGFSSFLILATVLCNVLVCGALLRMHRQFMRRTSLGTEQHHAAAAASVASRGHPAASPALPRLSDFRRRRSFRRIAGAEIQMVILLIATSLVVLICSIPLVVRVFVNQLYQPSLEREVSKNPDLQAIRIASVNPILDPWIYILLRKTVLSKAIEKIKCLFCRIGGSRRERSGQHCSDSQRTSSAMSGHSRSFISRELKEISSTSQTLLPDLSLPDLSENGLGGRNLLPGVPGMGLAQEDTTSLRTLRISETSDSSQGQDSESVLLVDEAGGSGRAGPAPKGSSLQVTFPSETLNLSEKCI
Experimental: Radioligand Binding Assay for the Evaluation of the Affinity of Compounds for the Agonist Site of the Human Prostanoid EP4 Receptor in Transfected HEK-293 Cells
Following incubation, the samples are filtered rapidly under vacuum through glass fiber filters (GF/B, Packard) presoaked with 0.3% PEI and rinsed several times with ice-cold 50 mM Tris-HCl using a 96-sample cell harvester (Unifilter, Packard). The filters are dried then counted for radioactivity in a scintillation counter (Topcount, Packard) using a scintillation cocktail (Microscint 0, Packard).

T1 sequence (P43114 whole entry): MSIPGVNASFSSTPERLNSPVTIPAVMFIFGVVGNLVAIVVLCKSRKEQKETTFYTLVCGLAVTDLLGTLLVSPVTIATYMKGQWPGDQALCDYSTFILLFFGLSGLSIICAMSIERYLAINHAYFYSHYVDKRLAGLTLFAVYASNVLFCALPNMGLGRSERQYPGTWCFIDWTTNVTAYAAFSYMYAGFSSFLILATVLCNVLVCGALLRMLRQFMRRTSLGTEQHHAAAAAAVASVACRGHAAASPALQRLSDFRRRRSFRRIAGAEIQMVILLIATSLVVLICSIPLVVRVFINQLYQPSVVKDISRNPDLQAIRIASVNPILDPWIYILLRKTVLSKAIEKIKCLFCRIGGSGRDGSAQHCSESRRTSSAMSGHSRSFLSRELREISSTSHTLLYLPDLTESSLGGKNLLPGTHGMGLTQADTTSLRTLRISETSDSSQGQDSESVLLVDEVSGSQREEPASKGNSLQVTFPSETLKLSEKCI

Row | SMILES | EC50 [1] | EC50 [2] | EC50 [3] | IC50 ([4]; read-out: hEP4 receptor binding IC50) | Ki ([4]; read-out: hEP4 receptor binding Ki)
1 | CC(CCCc1ccccc1)[C@H](O)/C=C/[C@H]1CCC(=O)N1CC#Cc1ccc(C(=O)O)s1 (mixture of isomers) [Example 3C, 5-(3-((2R)-2-((3S,E)-3-hydroxy-4-methyl-7-phenylhept-1-en-1-yl)-5-oxopyrrolidin-1-yl)prop-1-yn-1-yl)thiophene-2-carboxylic acid] | – | 0.019 nM | > 10000 nM | – | –
2 | CC(CCCc1ccccc1)[C@@H](O)/C=C/[C@H]1CCC(=O)N1CC#Cc1ccc(C(=O)O)s1 (mixture of isomers) [Example 3D, 5-(3-((2R)-2-((3R,E)-3-hydroxy-4-methyl-7-phenylhept-1-en-1-yl)-5-oxopyrrolidin-1-yl)prop-1-yn-1-yl)thiophene-2-carboxylic acid] | – | 31.5 nM | > 10000 nM | – | –
3 | CC(CCCc1ccccc1)[C@@H](O)/C=C/[C@H]1CCC(=O)N1CCCc1ccc(C(=O)O)s1 (mixture of isomers) [Example 4D, 5-(3-((2R)-2-((3R,E)-3-hydroxy-4-methyl-7-phenylhept-1-en-1-yl)-5-oxopyrrolidin-1-yl)propyl)thiophene-2-carboxylic acid] | – | – | > 10000 nM | – | –
4 | O=C(O)CCCCCCN1C(=O)CC[C@@H]1/C=C/[C@@H](O)CCCCc1ccccc1 [Example 1C, 7-((R)-2-((S,E)-3-hydroxy-7-phenylhept-1-en-1-yl)-5-oxopyrrolidin-1-yl)heptanoic acid] | 1.37 nM | 0.014 ± 0.02 nM | > 1000 nM | 10 nM | 3.8 nM

More lines, now with the values ahead:

Row | EC50 [1] | EC50 [2] | EC50 [3] | IC50 ([4]; read-out: hEP4 receptor binding IC50) | Ki ([4]; read-out: hEP4 receptor binding Ki) | SMILES
5 | 0.007 nM | 0.001 ± 0.001 nM | > 1000 nM | – | – | CC(CCCc1ccccc1)[C@H](O)/C=C/[C@H]1CCC(=O)N1CCCCCCC(=O)O (mixture of isomers) [Example 2C, 7-((2R)-2-((3S,E)-3-hydroxy-4-methyl-7-phenylhept-1-en-1-yl)-5-oxopyrrolidin-1-yl)heptanoic acid]
6 | – | 0.003 nM | 2280 nM | – | – | CC(CCCc1ccccc1)[C@H](O)/C=C/[C@H]1CCC(=O)N1CCCc1ccc(C(=O)O)s1 (mixture of isomers) [Example 4C, 5-(3-((2R)-2-((3S,E)-3-hydroxy-4-methyl-7-phenylhept-1-en-1-yl)-5-oxopyrrolidin-1-yl)propyl)thiophene-2-carboxylic acid]
